Results published in US8076281B2, “Use of a ghrelin agonist to improve the catabolic effects of glucocorticoid treatment” (IPSEN Pharma, S.A.S., priority 2006, dated 2011).

Key:
[1] = 24-hour food intake and food efficiency; assay type: in vivo, Sprague-Dawley rats; conditions: for 24-h food intake: after 10 days of dexamethasone treatment, compared with saline-treated animals, FIG. 4A; for food efficiency: ratio body weight gain (g) / food intake (g), compared with saline treatment
Experimental: (§1) Beginning on the 23rd day (i.e., the animals were 23 days old), 16 of the study animals were treated intraperitoneally (Ip) daily with 40 μg/kg of either saline or dexamethasone sodium phosphate (sold under the trademark Decadron® by Merck Pharmaceuticals, West Point, Pa.). Beginning on the 30th day (i.e., the animals were 30 days old), the subgroup of 16 studied animals was further divided into groups of 8 and treated subcutaneously three times daily (at approximately 9:00 am, 1:00 pm and 5:00 pm) with either 80 nmoles/kg of the preferred ghrelin analog [Aib^2, Glu^3(NH-hexyl)]hGhrelin(1-28)-NH2 (SEQ ID NO:2) (IPSEN, Milford, Mass.) dissolved in a sterile saline solution with 0.25% bovine serum albumin or vehicle (the saline-bovine serum albumin solution alone). This regimen continued for 24 days during which time the studied animals were weighed two times per week. At irregular intervals, the cumulative food intake for a 24-hour period of time was measured. Beginning on the 46th day (i.e., the animals were 46 days old), the length of the test and control animals from nose to anus was measured (hereinafter referred to as “the nose-anal length”). On the 47th day (i.e., the animals were 47 days old), all food was denied to the test subjects commencing at 8:00 am. Small samples of blood were taken via percutaneous puncture of the tail to assess blood glucose levels during the treatment period.
Food efficiency was calculated as the ratio between body weight gain (in grams) and food intake (in grams) measured over the same time interval.

[2] = Effects of pharmacological treatments on plasma hormones and glucose concentrations; assay type: in vivo, Sprague-Dawley rats; conditions: for plasma IGF-1 concentration (in words): compared with saline; for plasma corticosterone (in words) / plasma insulin (in words): compared with saline / vehicle
Experimental: as §1
The test animals received two subcutaneous administrations of [Aib^2, Glu^3(NH-hexyl)]hGhrelin(1-28)-NH2 (SEQ ID NO:2) at approximately 9:00 am and 1:00 pm. The studied animals were sacrificed by rapid decapitation at approximately 2:00 pm, trunk blood collected for hormone level determinations, and the epididymal fat pads removed and weighed.
Samples of trunk blood were taken from the test subjects following decapitation. The blood samples were collected in tubes containing EDTA, separated by centrifugation, and stored at −20° C. Plasma insulin, IGF-1, and corticosterone levels were all measured using commercial RIA kits (Insulin and Corticosterone kits were both obtained from ICN-Biomedicals, Asse-Relegem, BELGIUM and the rIGF-1 test kit was obtained from Mediagnostic GMbH, Tubingen, GERMANY). Glucose concentration was determined using the Glucotrend® Soft Test System blood glucose meter (Roche Diagnostics, Barcelona, SPAIN).
Unless otherwise stated, the results reported in FIGS. 3-6 are expressed as the mean±SEM of eight replicate test subjects. Data was analyzed for statistical significance by one-way ANOVA which determines the variation (variance) within the groups and how that variation translates into variation (i.e. differences) between the groups, taking into account how many subjects there are in each group. […] The linear correlation analysis was performed either by Pearson's parametric test or by Spearman's nonparametric test. A P value below 0.05 was considered significant.

[3] = Effects of pharmacological treatments on growth parameters in young rats; assay type: in vivo, Sprague-Dawley rats; conditions: FIG. 3; for somatic growth: young male rats, compared to SAL-treated rats
Experimental: Thirty-two prepubertal male Sprague-Dawley rats approximately 21 days old and weighing between 45 and 55 grams, were obtained from Harlan, Italy (S. Pietro al Natisone, ITALY). During the study, the animals were maintained in accordance with the guidelines of the Italian Ministry of Health for the care and use of laboratory animals (Decreto legge 116/92). The animals were randomly divided into two treatment groups and kept in a controlled environment at a constant temperature of 21-23° C. with 12:12 light/dark exposure continuous period wherein the light exposure began at approximately 8:00 am and ended at approximately 8:00 pm. The animals were provided with water and food ad libitum consisting of an approximate 3200 calories/kg daily diet of standard pellet chow provided by Piccioni, Gessate-Milano, Italy (containing at least 19% protein, 3% fat and 56% carbohydrate).
Beginning on the 23rd day (i.e., the animals were 23 days old), 16 of the study animals were treated intraperitoneally (Ip) daily with 40 μg/kg of either saline or dexamethasone sodium phosphate (sold under the trademark Decadron® by Merck Pharmaceuticals, West Point, Pa.). […] At irregular intervals, the cumulative food intake for a 24-hour period of time was measured. Beginning on the 46th day (i.e., the animals were 46 days old), the length of the test and control animals from nose to anus was measured (hereinafter referred to as “the nose-anal length”). […]
Unless otherwise stated, the results reported in FIGS. 3-6 are expressed as the mean±SEM of eight replicate test subjects. Data was analyzed for statistical significance by one-way ANOVA which determines the variation (variance) within the groups and how that variation translates into variation (i.e. differences) between the groups, taking into account how many subjects there are in each group. […]

[4] = in the rat; cited from earlier work

Compound | 24-h food intake [1] | food efficiency ([1]; FIG. 4B) | cumulative 24-hour food intake ([1]; up to 10 days from the beginning of the treatment) | plasma IGF-1 concentration (in words) [2] | plasma corticosterone (in words) [2] | plasma insulin (in words) [2] | somatic growth [3] | glucocorticoid-mediated GH-inhibition [4] | decrease of food efficiency induced by dexamethasone ([1]; in dexamethasone-treated rats, FIG. 4B) | Glucose ([2]; at sacrifice (day 47), mean ± SEM of eight animals) | suppression of the HPA axis (corticosterone) in dexamethasone-treated animals ([2]; in dexamethasone-treated animals) | IGF-1 suppression in dexamethasone-treated subjects ([2]; in dexamethasone-treated subjects) | growth suppression induced by DEX ([3]; concomitant treatment in DEX-treated rats)
C[C@@H]1C[C@H]2[C@@H]3CCC4=CC(=O)C=C[C@]4(C)[C@@]3(F)[C@@H](O)C[C@]2(C)[C@@]1(O)C(=O)CO [Dexamethasone, 9-fluoro-11β, 17, 21-trihydroxy-16a-methylpregna-1,4-diene-3,20-dione, reference compound] | significant reduction | significantly reduced food efficiency | did not significantly affect | significantly reduced | suppressed almost completely | tended to increase plasma insulin concentration, but the effect did not reach statistical significance | significantly decreased | – | – | – | – | – | –
GHRP-6 | – | – | – | – | – | – | – | completely counteract | – | – | – | – | –
[Aib^2, Glu^3(NH-hexyl)]hGhrelin(1-28)-NH2 (GXEFLSPEHQRVQQRKESKKPPAKLQPR; Aib2, Glu3 NH-hexyl, C-terminal amide; Ghrelin analog) | increased daily food intake | increased food efficiency | – | higher IGF-1 levels | clear-cut increase | unchanged | significantly increased | – | able to reverse | 122 ± 3 mg/dL | not able to overcome | partially reversed | reversed
